Data as given in ChEMBL document CHEMBL1201861, “Genomics of Drug Sensitity in Cancer screening data, Wellcome Trust Sanger Institute”.

Experiments:
Assay in all cases: cells
KU812 cell line = assay type: functional, cell-based, Homo sapiens; conditions: Homo sapiens, KU812
Description: SANGER: Inhibition of human KU812 cell growth in a cell viability assay.

KM-H2 = assay type: functional, cell-based, Homo sapiens; conditions: Homo sapiens, KM-H2
Description: SANGER: Inhibition of human KM-H2 cell growth in a cell viability assay.

Mo = assay type: functional, cell-based, Homo sapiens; conditions: Homo sapiens, Mo
Description: SANGER: Inhibition of human Mo-T cell growth in a cell viability assay.

ES8 = assay type: functional, cell-based, Homo sapiens; conditions: Homo sapiens, ES8
Description: SANGER: Inhibition of human ES8 cell growth in a cell viability assay.

CAS-1 = assay type: functional, cell-based, Homo sapiens; conditions: Homo sapiens, CAS-1
Description: SANGER: Inhibition of human CAS-1 cell growth in a cell viability assay.

LB2241-RCC = assay type: functional, cell-based, Homo sapiens; conditions: Homo sapiens, LB2241-RCC
Description: SANGER: Inhibition of human LB2241-RCC cell growth in a cell viability assay.

HCC2157 = assay type: functional, cell-based, Homo sapiens; conditions: Homo sapiens, HCC2157
Description: SANGER: Inhibition of human HCC2157 cell growth in a cell viability assay.

KLE = assay type: functional, cell-based; conditions: Homo sapiens
Description: SANGER: Inhibition of human KLE cell growth in a cell viability assay.

KNS-42 = assay type: functional, cell-based; conditions: Homo sapiens
Description: SANGER: Inhibition of human KNS-42 cell growth in a cell viability assay.

LB996-RCC = assay type: functional, cell-based, Homo sapiens; conditions: Homo sapiens, LB996-RCC
Description: SANGER: Inhibition of human LB996-RCC cell growth in a cell viability assay.

LS-513 = assay type: functional, cell-based, Homo sapiens; conditions: Homo sapiens, LS-513
Description: SANGER: Inhibition of human LS-513 cell growth in a cell viability assay.

SF-539 = assay type: functional, cell-based, Homo sapiens; conditions: Homo sapiens, SF-539
Description: SANGER: Inhibition of human SF539 cell growth in a cell viability assay.

GB-1 = assay type: functional, cell-based, Homo sapiens; conditions: Homo sapiens, GB-1
Description: SANGER: Inhibition of human GB-1 cell growth in a cell viability assay.

SK-MEL-1 = assay type: functional, cell-based, Homo sapiens; conditions: Homo sapiens, SK-MEL-1
Description: SANGER: Inhibition of human SK-MEL-1 cell growth in a cell viability assay.

EOL1 = assay type: functional, cell-based, Homo sapiens; conditions: Homo sapiens, EOL1
Description: SANGER: Inhibition of human EoL-1-cell cell growth in a cell viability assay.

D-502MG = assay type: functional, cell-based, Homo sapiens; conditions: Homo sapiens, D-502MG
Description: SANGER: Inhibition of human D-502MG cell growth in a cell viability assay.

J-RT3-T3-5 = assay type: functional, cell-based, Homo sapiens; conditions: Homo sapiens, J-RT3-T3-5
Description: SANGER: Inhibition of human J-RT3-T3-5 cell growth in a cell viability assay.

COLO-684 = assay type: functional, cell-based, Homo sapiens; conditions: Homo sapiens, COLO-684
Description: SANGER: Inhibition of human COLO-684 cell growth in a cell viability assay.

EW-16 = assay type: functional, cell-based, Homo sapiens; conditions: Homo sapiens, EW-16
Description: SANGER: Inhibition of human EW-16 cell growth in a cell viability assay.

SNU-C2B = assay type: functional, cell-based; conditions: Homo sapiens
Description: SANGER: Inhibition of human SNU-C2B cell growth in a cell viability assay.

HCC2218 = assay type: functional, cell-based, Homo sapiens; conditions: Homo sapiens, HCC2218
Description: SANGER: Inhibition of human HCC2218 cell growth in a cell viability assay.

SK-UT-1 = assay type: functional, cell-based, Homo sapiens; conditions: Homo sapiens, SK-UT-1
Description: SANGER: Inhibition of human SK-UT-1 cell growth in a cell viability assay.

HCE-T = assay type: functional, cell-based, Homo sapiens; conditions: Homo sapiens, HCE-T
Description: SANGER: Inhibition of human HCE-T cell growth in a cell viability assay.

CCRF-CEM = assay type: functional, cell-based, Homo sapiens; conditions: Homo sapiens, CCRF-CEM
Description: SANGER: Inhibition of human CCRF-CEM cell growth in a cell viability assay.

SK-N-FI = assay type: functional, cell-based, Homo sapiens; conditions: Homo sapiens, SK-N-FI
Description: SANGER: Inhibition of human SK-N-FI cell growth in a cell viability assay.

L-428 = assay type: functional, cell-based, Homo sapiens; conditions: Homo sapiens, L-428
Description: SANGER: Inhibition of human L-428 cell growth in a cell viability assay.

DEL = assay type: functional, cell-based, Homo sapiens; conditions: Homo sapiens, DEL
Description: SANGER: Inhibition of human DEL cell growth in a cell viability assay.

COLO-829 = assay type: functional, cell-based, Homo sapiens; conditions: Homo sapiens, COLO-829
Description: SANGER: Inhibition of human COLO-829 cell growth in a cell viability assay.

SCC-15 = assay type: functional, cell-based, Homo sapiens; conditions: Homo sapiens, SCC-15
Description: SANGER: Inhibition of human SCC-15 cell growth in a cell viability assay.

TGBC1TKB = assay type: functional, cell-based, Homo sapiens; conditions: Homo sapiens, TGBC1TKB
Description: SANGER: Inhibition of human TGBC1TKB cell growth in a cell viability assay.

SW872 = assay type: functional, cell-based, Homo sapiens; conditions: Homo sapiens, SW872
Description: SANGER: Inhibition of human SW872 cell growth in a cell viability assay.

RPMI-8866 = assay type: functional, cell-based, Homo sapiens; conditions: Homo sapiens, RPMI-8866
Description: SANGER: Inhibition of human RPMI-8866 cell growth in a cell viability assay.

KARPAS-299 = assay type: functional, cell-based, Homo sapiens; conditions: Homo sapiens, KARPAS-299
Description: SANGER: Inhibition of human KARPAS-299 cell growth in a cell viability assay.

SW982 = assay type: functional, cell-based; conditions: Homo sapiens
Description: SANGER: Inhibition of human SW982 cell growth in a cell viability assay.

KM12 = assay type: functional, cell-based, Homo sapiens; conditions: Homo sapiens, KM12
Description: SANGER: Inhibition of human KM12 cell growth in a cell viability assay.

KGN = assay type: functional, cell-based, Homo sapiens; conditions: Homo sapiens, KGN
Description: SANGER: Inhibition of human KGN cell growth in a cell viability assay.

ATN-1 = assay type: functional, cell-based, Homo sapiens; conditions: Homo sapiens, ATN-1
Description: SANGER: Inhibition of human ATN-1 cell growth in a cell viability assay.

NCI-H1304 = assay type: functional, cell-based, Homo sapiens; conditions: Homo sapiens, NCI-H1304
Description: SANGER: Inhibition of human NCI-H1304 cell growth in a cell viability assay.

TE-5 = assay type: functional, cell-based, Homo sapiens; conditions: Homo sapiens, TE-5
Description: SANGER: Inhibition of human TE-5 cell growth in a cell viability assay.

LB831-BLC = assay type: functional, cell-based, Homo sapiens; conditions: Homo sapiens, LB831-BLC
Description: SANGER: Inhibition of human LB831-BLC cell growth in a cell viability assay.

KARPAS-45 = assay type: functional, cell-based, Homo sapiens; conditions: Homo sapiens, KARPAS-45
Description: SANGER: Inhibition of human KARPAS-45 cell growth in a cell viability assay.

SHP77 = assay type: functional, cell-based, Homo sapiens, SHP-77; conditions: Homo sapiens, SHP77
Description: SANGER: Inhibition of human SHP-77 cell growth in a cell viability assay.

SNU1 = assay type: functional, cell-based, Homo sapiens; conditions: Homo sapiens, SNU1
Description: SANGER: Inhibition of human NCI-SNU-1 cell growth in a cell viability assay.

MZ7-mel = assay type: functional, cell-based, Homo sapiens; conditions: Homo sapiens, MZ7-mel
Description: SANGER: Inhibition of human MZ7-mel cell growth in a cell viability assay.

697 = assay type: functional, cell-based, Homo sapiens; conditions: Homo sapiens
Description: SANGER: Inhibition of human 697 cell growth in a cell viability assay.

MFM-223 = assay type: functional, cell-based, Homo sapiens; conditions: Homo sapiens, MFM-223
Description: SANGER: Inhibition of human MFM-223 cell growth in a cell viability assay.

NEC8 = assay type: functional, cell-based, Homo sapiens; conditions: Homo sapiens, NEC8
Description: SANGER: Inhibition of human NEC8 cell growth in a cell viability assay.

OVCAR-4 = assay type: functional, cell-based, Homo sapiens; conditions: Homo sapiens, OVCAR-4
Description: SANGER: Inhibition of human OVCAR-4 cell growth in a cell viability assay.

## O=C1NC(=O)c2c1c(-c1ccccc1Cl)cc1[nH]c3ccc(O)cc3c21
KU812 cell line
  IC50: > 2 µM
KM-H2
  IC50: > 2 µM
Mo
  IC50: > 2 µM
ES8
  IC50: > 2 µM
CAS-1
  IC50: > 2 µM
LB2241-RCC
  IC50: 0.394 µM
HCC2157
  IC50: 1.57 µM
KLE
  IC50: > 2 µM
KNS-42
  IC50: > 2 µM
LB996-RCC
  IC50: > 2 µM
LS-513
  IC50: > 2 µM
SF-539
  IC50: 1.25 µM
GB-1
  IC50: > 2 µM
SK-MEL-1
  IC50: > 2 µM
EOL1
  IC50: > 2 µM
D-502MG
  IC50: > 2 µM
J-RT3-T3-5
  IC50: 1.58 µM
COLO-684
  IC50: > 2 µM
EW-16
  IC50: > 2 µM
SNU-C2B
  IC50: > 2 µM
HCC2218
  IC50: > 2 µM
SK-UT-1
  IC50: > 2 µM
HCE-T
  IC50: > 2 µM
CCRF-CEM
  IC50: > 2 µM
SK-N-FI
  IC50: > 2 µM
L-428
  IC50: > 2 µM
DEL
  IC50: 0.485 µM
COLO-829
  IC50: > 2 µM
SCC-15
  IC50: > 2 µM
TGBC1TKB
  IC50: > 2 µM
SW872
  IC50: > 2 µM
RPMI-8866
  IC50: > 2 µM
KARPAS-299
  IC50: > 2 µM
SW982
  IC50: > 2 µM
KM12
  IC50: > 2 µM
KGN
  IC50: 1.68 µM
ATN-1
  IC50: 0.316 µM
NCI-H1304
  IC50: > 2 µM
TE-5
  IC50: > 2 µM
LB831-BLC
  IC50: > 2 µM
KARPAS-45
  IC50: > 2 µM
SHP77
  IC50: > 2 µM
SNU1
  IC50: 0.898 µM
MZ7-mel
  IC50: > 2 µM
697
  IC50: 0.431 µM
MFM-223
  IC50: > 2 µM

## O=C(NCCCNc1nc(Nc2cccc(NC(=O)N3CCCC3)c2)ncc1I)c1cccs1 [BX-795]
KM-H2
  IC50: > 5 µM
Mo
  IC50: > 5 µM
ES8
  IC50: 0.843 µM
CAS-1
  IC50: 3.02 µM
LB2241-RCC
  IC50: 2.69 µM
HCC2157
  IC50: > 5 µM
KLE
  IC50: > 5 µM
KNS-42
  IC50: > 5 µM
LB996-RCC
  IC50: 4.51 µM
LS-513
  IC50: > 5 µM
SF-539
  IC50: 3.74 µM
GB-1
  IC50: 4.64 µM
SK-MEL-1
  IC50: > 5 µM
D-502MG
  IC50: > 5 µM
J-RT3-T3-5
  IC50: > 5 µM
COLO-684
  IC50: > 5 µM
EW-16
  IC50: 4.31 µM
SNU-C2B
  IC50: > 5 µM
SK-UT-1
  IC50: 2.29 µM
HCE-T
  IC50: > 5 µM
CCRF-CEM
  IC50: > 5 µM
SK-N-FI
  IC50: > 5 µM
L-428
  IC50: > 5 µM
DEL
  IC50: 2.76 µM
COLO-829
  IC50: > 5 µM
SCC-15
  IC50: > 5 µM
TGBC1TKB
  IC50: > 5 µM
SW872
  IC50: 2.71 µM
NEC8
  IC50: > 5 µM
RPMI-8866
  IC50: > 5 µM
KARPAS-299
  IC50: > 5 µM
SW982
  IC50: 0.951 µM
KM12
  IC50: 3.3 µM
KGN
  IC50: 2.23 µM
ATN-1
  IC50: 1.37 µM
NCI-H1304
  IC50: > 5 µM
TE-5
  IC50: > 5 µM
LB831-BLC
  IC50: > 5 µM
SHP77
  IC50: > 5 µM
SNU1
  IC50: 4.19 µM
MZ7-mel
  IC50: > 5 µM
697
  IC50: 1.02 µM
OVCAR-4
  IC50: > 5 µM
MFM-223
  IC50: > 5 µM
